molecular target: recombinant mTOR (FLAG-tagged, residues 1362-2549) (Homo sapiens, UniProt P42345); assay: In vitro mTOR kinase assay (Test (a), AlphaScreen); assay type: biochemical; conditions: ATP 20 μM, read-out: Test (a): IC50 versus mTOR kinase
Summary of the method: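 AlphaScreen read-out: a phospho-T389 p70 S6K antibody on acceptor beads captures the phosphorylated biotin-peptide on donor beads, with signal loss indicating inhibition.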

recombinant mTOR (FLAG-tagged, residues 1362-2549), sequence (P42345 1362-2549): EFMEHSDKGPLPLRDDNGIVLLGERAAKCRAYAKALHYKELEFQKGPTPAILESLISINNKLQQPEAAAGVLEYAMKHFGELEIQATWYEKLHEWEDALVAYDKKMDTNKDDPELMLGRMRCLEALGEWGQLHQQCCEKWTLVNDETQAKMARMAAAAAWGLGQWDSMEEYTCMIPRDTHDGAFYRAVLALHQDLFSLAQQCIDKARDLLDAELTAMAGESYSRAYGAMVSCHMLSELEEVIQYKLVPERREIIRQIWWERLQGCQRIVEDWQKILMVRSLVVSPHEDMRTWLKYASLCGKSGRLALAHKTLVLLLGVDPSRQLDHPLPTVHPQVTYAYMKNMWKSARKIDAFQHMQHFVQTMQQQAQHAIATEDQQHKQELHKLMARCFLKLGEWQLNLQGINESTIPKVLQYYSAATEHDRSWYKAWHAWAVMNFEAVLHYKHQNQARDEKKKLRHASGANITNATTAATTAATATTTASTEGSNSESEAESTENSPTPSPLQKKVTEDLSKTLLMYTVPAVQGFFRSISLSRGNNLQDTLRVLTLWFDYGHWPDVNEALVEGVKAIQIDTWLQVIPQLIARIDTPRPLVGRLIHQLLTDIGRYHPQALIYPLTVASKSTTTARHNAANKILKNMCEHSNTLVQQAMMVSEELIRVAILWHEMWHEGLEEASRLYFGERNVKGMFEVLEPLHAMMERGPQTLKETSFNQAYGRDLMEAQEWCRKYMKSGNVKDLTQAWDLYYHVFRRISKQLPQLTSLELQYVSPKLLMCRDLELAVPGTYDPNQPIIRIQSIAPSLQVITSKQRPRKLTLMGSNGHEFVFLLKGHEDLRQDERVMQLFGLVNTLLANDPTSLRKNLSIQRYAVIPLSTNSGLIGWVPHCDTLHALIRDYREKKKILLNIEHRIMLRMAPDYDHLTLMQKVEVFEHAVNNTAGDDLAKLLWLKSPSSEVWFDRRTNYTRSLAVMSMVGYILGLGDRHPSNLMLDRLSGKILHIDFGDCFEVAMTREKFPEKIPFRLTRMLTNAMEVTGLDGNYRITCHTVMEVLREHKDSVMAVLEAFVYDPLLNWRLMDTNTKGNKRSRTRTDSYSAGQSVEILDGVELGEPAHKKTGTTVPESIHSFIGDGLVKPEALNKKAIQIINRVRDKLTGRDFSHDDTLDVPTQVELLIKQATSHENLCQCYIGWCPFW

Row | IC50 | SMILES
1 | 180 nM | C[C@H]1COCCN1c1cc(CNC2CC2)nc(-c2ccc(NC(=O)Nc3ccccc3)cc2)n1 [Example 30b, 1-[4-[4-[(cyclopropylamino)methyl]-6-[(3S)-3-methylmorpholin-4-yl]pyrimidin-2-yl]phenyl]-3-phenyl-urea]
2 | 1100 nM | C[C@H]1COCCN1c1cc(CNC2CCN(C)CC2)nc(-c2ccc(NC(=O)Nc3ccccc3)cc2)n1 [Example 30c, 1-[4-[4-[(3S)-3-methylmorpholin-4-yl]-6-[[(1-methyl-4-piperidyl)amino]methyl]pyrimidin-2-yl]phenyl]-3-phenyl-urea]
3 | 280 nM | C[C@H]1COCCN1c1cc(CN(C)C2CC2)nc(-c2ccc(NC(=O)Nc3ccccc3)cc2)n1 [Example 30d, 1-[4-[4-[(cyclopropyl-methyl-amino)methyl]-6-[(3S)-3-methylmorpholin-4-yl]pyrimidin-2-yl]phenyl]-3-phenyl-urea]
4 | 350 nM | C[C@H]1COCCN1c1cc(COC2CCN(C)CC2)nc(-c2ccc(NC(=O)Nc3ccccc3)cc2)n1 [Example 31, 1-[4-[4-[(3S)-3-Methylmorpholin-4-yl]-6-[(1-methyl-4-piperidyl)oxymethyl]pyrimidin-2-yl]phenyl]-3-phenyl-urea]
5 | 6.2 nM | COCc1cc(N2CCOC[C@@H]2C)nc(-c2ccc(NC(=O)Nc3ccccc3)cc2)n1 [Example 32, 1-[4-[4-(Methoxymethyl)-6-[(3S)-3-methylmorpholin-4-yl]pyrimidin-2-yl]phenyl]-3-phenyl-urea]
6 | 840 nM | CNC(=O)Nc1ccc(-c2nc(CS(=O)(=O)c3nccn3C)cc(N3CCOC[C@@H]3C)n2)cc1 [Example 33, 3-Methyl-1-[4-[4-[(1-methylimidazol-2-yl)sulfonylmethyl]-6-[(3S)-3-methylmorpholin-4-yl]pyrimidin-2-yl]phenyl]urea]
7 | 60 nM | CNC(=O)Nc1ccc(-c2nc(CS(=O)(=O)c3ccccc3Cl)cc(N3CCOC[C@@H]3C)n2)cc1 [Example 33a, 1-[4-[4-[(2-chlorophenyl)sulfonylmethyl]-6-[(3S)-3-methylmorpholin-4-yl]pyrimidin-2-yl]phenyl]-3-methyl-urea]
8 | 66 nM | CNC(=O)Nc1ccc(-c2nc(CS(=O)(=O)c3ccccc3OC)cc(N3CCOC[C@@H]3C)n2)cc1 [Example 33b, 1-[4-[4-[(2-methoxyphenyl)sulfonylmethyl]-6-[(3S)-3-methylmorpholin-4-yl]pyrimidin-2-yl]phenyl]-3-methyl-urea]
9 | 1.4 nM | CNC(=O)Nc1ccc(-c2nc(CS(=O)(=O)c3ncc[nH]3)cc(N3CCOC[C@@H]3C)n2)cc1 [Example 33c, 1-[4-[4-(1H-imidazol-2-ylsulfonylmethyl)-6-[(3S)-3-methylmorpholin-4-yl]pyrimidin-2-yl]phenyl]-3-methyl-urea]
10 | 0.31 nM | CNC(=O)Nc1ccc(-c2nc(CS(=O)(=O)c3ccc(N)cc3)cc(N3CCOC[C@@H]3C)n2)cc1 [Example 33d, 1-[4-[4-[(4-aminophenyl)sulfonylmethyl]-6-[(3S)-3-methylmorpholin-4-yl]pyrimidin-2-yl]phenyl]-3-methyl-urea]
11 | 88 nM | CNC(=O)Nc1ccc(-c2nc(CS(=O)(=O)c3ccccc3C)cc(N3CCOC[C@@H]3C)n2)cc1 [Example 33e, 3-methyl-1-[4-[4-[(3S)-3-methylmorpholin-4-yl]-6-[(2-methylphenyl)sulfonylmethyl]pyrimidin-2-yl]phenyl]urea]
12 | 270 nM | CNC(=O)Nc1ccc(-c2nc(CS(=O)(=O)c3ccccn3)cc(N3CCOC[C@@H]3C)n2)cc1 [Example 33f, 3-methyl-1-[4-[4-[(3S)-3-methylmorpholin-4-yl]-6-(pyridin-2-ylsulfonylmethyl)pyrimidin-2-yl]phenyl]urea]
13 | 21 nM | CNC(=O)Nc1ccc(-c2nc(CS(=O)(=O)c3nccs3)cc(N3CCOC[C@@H]3C)n2)cc1 [Example 33g, 3-methyl-1-[4-[4-[(3S)-3-methylmorpholin-4-yl]-6-(1,3-thiazol-2-ylsulfonylmethyl)pyrimidin-2-yl]phenyl]urea]
14 | 48 nM | CNC(=O)Nc1ccc(-c2nc(CS(=O)(=O)c3nc(C)cs3)cc(N3CCOC[C@@H]3C)n2)cc1 [Example 33h, 3-methyl-1-[4-[4-[(3S)-3-methylmorpholin-4-yl]-6-[(4-methyl-1,3-thiazol-2-yl)sulfonylmethyl]pyrimidin-2-yl]phenyl]urea]
15 | 210 nM | CS(=O)(=O)Cc1cc(N2CCOCC2)nc(-c2ccc(NC(N)=O)cc2)n1 [Example 34, [4-[4-(Methylsulfonylmethyl)-6-morpholin-4-yl-pyrimidin-2-yl]phenyl]urea]
16 | 42 nM | CS(=O)(=O)Cc1cc(N2CCOCC2)nc(-c2ccc(NC(=O)Nc3ccon3)cc2)n1 [Example 34a, 1-[4-[4-(methylsulfonylmethyl)-6-morpholin-4-yl-pyrimidin-2-yl]phenyl]-3-(1,2-oxazol-3-yl)urea]
17 | 720 nM | Cn1ccc(NC(=O)Nc2ccc(-c3nc(CS(C)(=O)=O)cc(N4CCOCC4)n3)cc2)n1 [Example 34c, 1-(1-methylpyrazol-3-yl)-3-[4-[4-(methylsulfonylmethyl)-6-morpholin-4-yl-pyrimidin-2-yl]phenyl]urea]

Row | IC50 | SMILES
18 | 64 nM | CC(CO)NC(=O)Nc1ccc(-c2nc(CS(C)(=O)=O)cc(N3CCOC[C@@H]3C)n2)cc1 (stereo partly drawn) [Example 35, 3-(1-Hydroxypropan-2-yl)-1-[4-[4-[(3S)-3-methylmorpholin-4-yl]-6-(methylsulfonylmethyl)pyrimidin-2-yl]phenyl]urea]
19 | 6400 nM | C[C@H]1COCCN1c1cc(CS(C)(=O)=O)nc(-c2ccc(NC(=O)NCCCN(C)C)cc2)n1 [Example 35a, 3-(3-dimethylaminopropyl)-1-[4-[4-[(3S)-3-methylmorpholin-4-yl]-6-(methylsulfonylmethyl)pyrimidin-2-yl]phenyl]urea]
20 | 420 nM | COCCCNC(=O)Nc1ccc(-c2nc(CS(C)(=O)=O)cc(N3CCOC[C@@H]3C)n2)cc1 [Example 35b, 3-(3-methoxypropyl)-1-[4-[4-[(3S)-3-methylmorpholin-4-yl]-6-(methylsulfonylmethyl)pyrimidin-2-yl]phenyl]urea]
21 | 3400 nM | C[C@H]1COCCN1c1cc(CS(C)(=O)=O)nc(-c2ccc(NC(=O)N3CCCC3)cc2)n1 [Example 35c, N-[4-[4-[(3S)-3-methylmorpholin-4-yl]-6-(methylsulfonylmethyl)pyrimidin-2-yl]phenyl]pyrrolidine-1-carboxamide]
22 | 3200 nM | C[C@H]1COCCN1c1cc(CS(C)(=O)=O)nc(-c2ccc(NC(=O)N3CCOCC3)cc2)n1 [Example 35d, N-[4-[4-[(3S)-3-methylmorpholin-4-yl]-6-(methylsulfonylmethyl)pyrimidin-2-yl]phenyl]morpholine-4-carboxamide]
23 | 2500 nM | C[C@H]1COCCN1c1cc(CS(C)(=O)=O)nc(-c2ccc(NC(=O)N3CCC(O)CC3)cc2)n1 [Example 35e, 4-hydroxy-N-[4-[4-[(3S)-3-methylmorpholin-4-yl]-6-(methylsulfonylmethyl)pyrimidin-2-yl]phenyl]piperidine-1-carboxamide]
24 | 820 nM | C[C@H]1COCCN1c1cc(CS(C)(=O)=O)nc(-c2ccc(NC(=O)NC(C)(C)C)cc2)n1 [Example 35f, 1-[4-[4-[(3S)-3-methylmorpholin-4-yl]-6-(methylsulfonylmethyl)pyrimidin-2-yl]phenyl]-3-tert-butyl-urea]
25 | 770 nM | C[C@H]1COCCN1c1cc(CS(C)(=O)=O)nc(-c2ccc(NC(=O)N3CCCC(O)C3)cc2)n1 (stereo partly drawn) [Example 35i, 3-hydroxy-N-[4-[4-[(3S)-3-methylmorpholin-4-yl]-6-(methylsulfonylmethyl)pyrimidin-2-yl]phenyl]piperidine-1-carboxamide]
26 | 3600 nM | C[C@H]1COCCN1c1cc(CS(C)(=O)=O)nc(-c2ccc(NC(=O)N(C)CCN(C)C)cc2)n1 [Example 35j, 1-(2-dimethylaminoethyl)-1-methyl-3-[4-[4-[(3S)-3-methylmorpholin-4-yl]-6-(methylsulfonylmethyl)pyrimidin-2-yl]phenyl]urea]
27 | 1200 nM | C[C@H]1COCCN1c1cc(CS(C)(=O)=O)nc(-c2ccc(NC(=O)NCCN3CCOCC3)cc2)n1 [Example 35k, 1-[4-[4-[(3S)-3-methylmorpholin-4-yl]-6-(methylsulfonylmethyl)pyrimidin-2-yl]phenyl]-3-(2-morpholin-4-ylethyl)urea]
28 | 470 nM | C[C@H]1COCCN1c1cc(CS(C)(=O)=O)nc(-c2ccc(NC(=O)NCc3ncc[nH]3)cc2)n1 [Example 35l, 3-(1H-imidazol-2-ylmethyl)-1-[4-[4-[(3S)-3-methylmorpholin-4-yl]-6-(methylsulfonylmethyl)pyrimidin-2-yl]phenyl]urea]
29 | 2000 nM | C[C@H]1COCCN1c1cc(CS(C)(=O)=O)nc(-c2ccc(NC(=O)N(C)C3CC3)cc2)n1 [Example 35m, 1-cyclopropyl-1-methyl-3-[4-[4-[(3S)-3-methylmorpholin-4-yl]-6-(methylsulfonylmethyl)pyrimidin-2-yl]phenyl]urea]
30 | 1100 nM | C[C@H]1COCCN1C(=O)Nc1ccc(-c2nc(CS(C)(=O)=O)cc(N3CCOC[C@@H]3C)n2)cc1 [Example 35n, (3S)-3-methyl-N-[4-[4-[(3S)-3-methylmorpholin-4-yl]-6-(methylsulfonylmethyl)pyrimidin-2-yl]phenyl]morpholine-4-carboxamide]
31 | 62 nM | C[C@H]1COCCN1C(=O)c1cc(N2CCOC[C@@H]2C)nc(-c2ccc(NC(=O)NC3CC3)cc2)n1 [Example 36, 3-Cyclopropyl-1-[4-[4-[(3S)-3-methylmorpholine-4-carbonyl]-6-[(3S)-3-methylmorpholin-4-yl]pyrimidin-2-yl]phenyl]urea]
32 | 2900 nM | C[C@H]1COCCN1c1cc(C(=O)NC2CC2)nc(-c2ccc(NC(=O)NC3CC3)cc2)n1 [Example 36a, N-cyclopropyl-2-[4-(cyclopropylcarbamoylamino)phenyl]-6-[(3S)-3-methylmorpholin-4-yl]pyrimidine-4-carboxamide]
33 | 180 nM | C[C@H]1COCCN1c1cc(C(=O)N2CCN(C)CC2)nc(-c2ccc(NC(=O)NC3CC3)cc2)n1 [Example 36b, 3-cyclopropyl-1-[4-[4-[(3S)-3-methylmorpholin-4-yl]-6-(4-methylpiperazine-1-carbonyl)pyrimidin-2-yl]phenyl]urea]

— US7750003B2, “Compounds-943” (AstraZeneca AB, priority 2006, dated 2010)
